Results: ChEMBL document CHEMBL3525954, “Evaluation of hepatic disposition of paroxetine using sandwich-cultured rat and human hepatocytes” (Drug Metab Dispos, 2013)

Legend:
[1] = Drug metabolism in 4 days of sandwich-cultured human hepatocytes assessed as parent compound level at 1 uM after 24 hrs by radio-chromatogram analysis; assay type: ADME, cell-based, Hepatocyte; settings: read-out: Drug metabolism
[2] = Drug metabolism in 4 days of sandwich-cultured Sprague-Dawley rat hepatocytes assessed as (2S,3R,4S,5S,6R)-2-(4-(((4R)-4-(4-fluorophenyl)piperidin-3-yl)methoxy)-2-methoxyphenoxy)-6-(hydroxymethyl)tetrahydro-2H-pyran-3,4,5-triol level at 1 uM by radio-chromatogram analysis; assay type: ADME, cell-based, Hepatocyte; settings: 96 h, TDE = time-dependent effect
[3] = Drug metabolism in 4 days of sandwich-cultured Sprague-Dawley rat hepatocytes assessed as 4-(((4R)-4-(4-fluorophenyl)piperidin-3-yl)methoxy)-2-methoxyphenyl hydrogen sulfate level at 1 uM by radio-chromatogram analysis; assay type: ADME, cell-based, Hepatocyte; settings: 96 h, TDE = time-dependent effect
[4] = Drug metabolism in Sprague-Dawley rat hepatocytes assessed as 4-(((4R)-4-(4-fluorophenyl)piperidin-3-yl)methoxy)-2-methoxyphenyl hydrogen sulfate level at 1 uM by radio-chromatogram analysis; assay type: ADME, cell-based, Hepatocyte; settings: TDE = time-dependent effect
[5] = Drug metabolism in Sprague-Dawley rat hepatocytes assessed as parent compound level at 1 uM after 3 hrs by radio-chromatogram analysis; assay type: ADME, cell-based, Hepatocyte; settings: read-out: Drug metabolism
[6] = Drug metabolism in 4 days of sandwich-cultured Sprague-Dawley rat hepatocytes assessed as parent compound level at 1 uM after 24 hrs by radio-chromatogram analysis; assay type: ADME, cell-based, Hepatocyte; settings: read-out: Drug metabolism
[7] = Drug metabolism in Sprague-Dawley rat hepatocytes assessed as parent compound level at 1 uM by radio-chromatogram analysis; assay type: ADME, cell-based, Hepatocyte; settings: TDE = time-dependent effect
[8] = Drug metabolism in human hepatocytes assessed as parent compound level at 1 uM after 3 hrs by radio-chromatogram analysis; assay type: ADME, cell-based, Hepatocyte; settings: read-out: Drug metabolism
[9] = Drug metabolism in Sprague-Dawley rat hepatocytes assessed as (2S,3R,4S,5S,6R)-2-(4-(((4R)-4-(4-fluorophenyl)piperidin-3-yl)methoxy)-2-methoxyphenoxy)-6-(hydroxymethyl)tetrahydro-2H-pyran-3,4,5-triol level at 1 uM by radio-chromatogram analysis; assay type: ADME, cell-based, Hepatocyte; settings: TDE = time-dependent effect
[10] = Drug metabolism in 4 days of sandwich-cultured Sprague-Dawley rat hepatocytes assessed as parent compound level at 1 uM by radio-chromatogram analysis; assay type: ADME, cell-based, Hepatocyte; settings: 96 h, TDE = time-dependent effect
[11] = Drug uptake in rat liver […] assessed as BCRP-mediated drug transport at 0.5 uM up to 2 mins by liquid scintillation counting in presence of ATP; assay type: ADME, subcellular
[12] = Drug metabolism in 4 days of sandwich-cultured Sprague-Dawley rat hepatocytes assessed as biliary excretion index treated with at 1 uM of paroxetine after 0.025 to 24 hrs by radio-chromatogram analysis; assay type: ADME, tissue-based, Bile, Hepatocyte; settings: 96 h
[13] = Drug metabolism in human hepatocytes treated with at 1 uM of paroxetine after 3 hrs by radio-chromatogram analysis; assay type: ADME, cell-based, Hepatocyte
[14] = Drug metabolism in 4 days of sandwich-cultured human hepatocytes treated with at 1 uM of paroxetine after 24 hrs by radio-chromatogram analysis; assay type: ADME, cell-based, Hepatocyte; settings: 96 h
[15] = Drug metabolism in Sprague-Dawley rat hepatocytes treated with at 1 uM of paroxetine by radio-chromatogram analysis; assay type: ADME, cell-based, Hepatocyte; settings: TDE = time-dependent effect
[16] = Drug metabolism in 4 days of sandwich-cultured Sprague-Dawley rat hepatocytes treated with at 1 uM of paroxetine by radio-chromatogram analysis; assay type: ADME, cell-based, Hepatocyte; settings: 96 h, TDE = time-dependent effect
[17] = Drug metabolism in 4 days of sandwich-cultured human hepatocytes assessed as biliary excretion index treated with at 1 uM of paroxetine after 0.025 to 24 hrs by radio-chromatogram analysis; assay type: ADME, tissue-based, Bile, Hepatocyte; settings: 96 h

Structure (SMILES): Fc1ccc([C@@H]2CCNC[C@H]2COc2ccc3c(c2)OCO3)cc1.O=C(O)/C=C\C(=O)O
- remaining at 96 h, 1 µM [1]: 52.8%
- Drug metabolism [2]: tde
- Drug metabolism [3]: tde
- Drug metabolism [4]: tde
- remaining at 3 h, 1 µM [5]: 29.7%
- remaining at 96 h, 1 µM [6]: 36.6%
- Drug metabolism [7]: tde
- remaining at 3 h, 1 µM [8]: 71.4%
- Drug metabolism [9]: tde
- Drug metabolism [10]: tde

Structure (SMILES): COc1cc(OC[C@@H]2CNCC[C@H]2c2ccc(F)cc2)ccc1O[C@@H]1O[C@H](C(=O)O)[C@@H](O)[C@H](O)[C@H]1O
- Drug uptake [11]: Active
- Drug metabolism [12]: metabolite_detected
- Drug metabolism [13]: metabolite_detected
- Drug metabolism [14]: metabolite_detected
- Drug metabolism [15]: tde
- Drug metabolism [16]: tde
- Drug metabolism [17]: metabolite_detected

Structure (SMILES): COc1cc(OC[C@@H]2CNCC[C@H]2c2ccc(F)cc2)ccc1OS(=O)(=O)O
- Drug uptake [11]: Not Active
- Drug metabolism [12]: metabolite_detected
- Drug metabolism [13]: metabolite_detected
- Drug metabolism [14]: metabolite_detected
- Drug metabolism [15]: tde
- Drug metabolism [16]: tde
- Drug metabolism [17]: metabolite_detected
